Assay results from patent publication US7091038B2, “Ecdysone receptor-based inducible gene expression system” (RheoGene, Inc., priority 2000, dated 2006).

Assays:
DmVgRXR + MmRXR = DmVgRXR + MmRXR (Drosophila melanogaster, UniProt P34021, E282G/G283S/G286V); test: Transactivation of reporter gene through switch 1.8 in 3T3 cells; assay type: cell-based, Drosophila melanogaster; Mus musculus; settings: switch 1.8, pIND(SP1)LacZ
VP16CfEcR = test: Transactivation of reporter gene through switch 1.7 in 293 cells; assay type: cell-based, Choristoneura fumiferana; settings: switch 1.7, pEcRELuc
Experimental: Six ecdysone response elements (“EcRE”; SEQ ID NO: 55) from the hsp27 gene were placed upstream of the promoter and a luciferase gene (SEQ ID NO: 66). This switch most probably uses endogenous RXR.
The cells were harvested and reporter activity was assayed.
The same procedures described for CHO were followed for 293 cells except that the cells were plated in biocoated plates to avoid clumping.
Cells were harvested 24–48 hr after adding ligands. […] Twenty μl of lysate was assayed.

[1] = tested on: EcR/RXR receptor combinations; test: Truncated CfEcR and MmRXR receptor combinations, luciferase reporter in NIH3T3 cells; assay type: cell-based, Choristoneura fumiferana; Mus musculus; settings: 0, 1, 5 or 25 uM ligand for 48 hr, FIGS. 11–14
Experimental: Briefly, polynucleotides encoding EcR or RXR receptors were truncated at the junctions of A/B, C, D, E and F domains and fused to either a GAL4 DNA binding domain encoding polynucleotide (SEQ ID NO: 43) for CfEcR, or a VP16 activation domain encoding polynucleotide (SEQ ID NO: 49) for MmRXR as described in Example 1. The resulting receptor truncation/fusion polypeptides were assayed in NIH3T3 cells. Plasmid pFRLUC (Stratagene) encoding a luciferase polypeptide was used as a reporter gene construct and pTKRL (Promega) encoding a Renilla luciferase polypeptide under the control of the constitutive TK promoter was used to normalize the transfections as described above. The analysis was performed in triplicates and mean luciferase counts were determined as described above. […]

CfEcRDEF:MmRXRDEF = test: CfEcR-based yeast two-hybrid assay, LacZ reporter pSH118; assay type: cell-based, Choristoneura fumiferana; Mus musculus
From the text: This construct results in a LexA:CfEcRDEF fusion that is expressed under the GAL1 promoter.
The D, E, and F domains from mouse (Mus musculus) RXR α (“MmRXRDEF”; SEQ ID NO: 22) were fused to a B42 transactivation domain (“B42AD”; SEQ ID NO: 53) and placed under the control of a GAL1 promoter (SEQ ID NO: 73) in pB42AD (CLONTECH). This construct results in a B42AD:MmRXR-DEF fusion that is expressed under the GAL 1 promoter.
A reporter plasmid comprising a β-galactosidase gene (LacZ; SEQ ID NO: 74) under the control of an 8XLexA operon response element (“8XlexAop”; SEQ ID NO: 75) operably linked to a minimal TATAA region from the GAL1 promoter (p8op-lacZ from CLONTECH) was used to monitor inducible gene expression.
Saccharomyces cerevisiae yeast cells (EGY48; CLONTECH) were used in these experiments. Cells were maintained in liquid culture media with the appropriate drop out amino acids. Standard methods for culture and maintenance of the cells were followed. […]
DNA constructs pSH118, CfEcRDEF, and MmRXRA/BCDEF, MmRXRDEF, or […] were transfected into yeast cells. […] A colony from each group of transformants was grown in the liquid culture in the presence of 0, 0.04, 0.2, 1, 5 and 25 μM GS™-E. The reporter activity was measured as described above 4 hours after adding ligand. Total RLUs were calculated and the numbers on the bars of FIG. 16 show maximum fold induction observed for that group (see FIGS. 16 and 17).
The best performing transformed yeast strain from the analysis above comprising CfEcRDEF:MmRXRDEF was used to determine the induction activity of three steroid ligands (20E, PonA, MurA) and four non-steroid ligands (GS™-E, RH2485, RH5992, RH5849) in this yeast-based format. The yeast cells were cultured in the presence of 0, 0.l, 1, 10, 50 and 100 μM ligands for four hours and the reporter activity was measured as described above. Total RLUs were calculated and the numbers on the top of the bars of FIG. 18 show the maximum fold induction for that group (see FIGS. 18 and 19).

DmVgRXR + MmRXR, sequence (P28700 whole entry): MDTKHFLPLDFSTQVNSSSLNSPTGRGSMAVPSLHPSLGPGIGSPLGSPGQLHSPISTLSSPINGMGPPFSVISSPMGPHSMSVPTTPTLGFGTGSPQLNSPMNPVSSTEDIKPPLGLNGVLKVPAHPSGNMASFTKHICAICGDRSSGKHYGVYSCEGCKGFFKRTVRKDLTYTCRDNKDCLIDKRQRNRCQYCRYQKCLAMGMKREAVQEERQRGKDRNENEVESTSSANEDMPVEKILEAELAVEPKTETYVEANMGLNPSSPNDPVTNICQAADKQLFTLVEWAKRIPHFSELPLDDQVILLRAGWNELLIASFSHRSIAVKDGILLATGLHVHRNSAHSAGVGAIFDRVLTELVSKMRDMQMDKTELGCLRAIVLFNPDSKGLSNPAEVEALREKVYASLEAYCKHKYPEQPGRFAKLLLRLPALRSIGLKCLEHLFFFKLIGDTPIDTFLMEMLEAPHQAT
DmVgRXR + MmRXR, sequence (P34021 whole entry E282G/G283S/G286V): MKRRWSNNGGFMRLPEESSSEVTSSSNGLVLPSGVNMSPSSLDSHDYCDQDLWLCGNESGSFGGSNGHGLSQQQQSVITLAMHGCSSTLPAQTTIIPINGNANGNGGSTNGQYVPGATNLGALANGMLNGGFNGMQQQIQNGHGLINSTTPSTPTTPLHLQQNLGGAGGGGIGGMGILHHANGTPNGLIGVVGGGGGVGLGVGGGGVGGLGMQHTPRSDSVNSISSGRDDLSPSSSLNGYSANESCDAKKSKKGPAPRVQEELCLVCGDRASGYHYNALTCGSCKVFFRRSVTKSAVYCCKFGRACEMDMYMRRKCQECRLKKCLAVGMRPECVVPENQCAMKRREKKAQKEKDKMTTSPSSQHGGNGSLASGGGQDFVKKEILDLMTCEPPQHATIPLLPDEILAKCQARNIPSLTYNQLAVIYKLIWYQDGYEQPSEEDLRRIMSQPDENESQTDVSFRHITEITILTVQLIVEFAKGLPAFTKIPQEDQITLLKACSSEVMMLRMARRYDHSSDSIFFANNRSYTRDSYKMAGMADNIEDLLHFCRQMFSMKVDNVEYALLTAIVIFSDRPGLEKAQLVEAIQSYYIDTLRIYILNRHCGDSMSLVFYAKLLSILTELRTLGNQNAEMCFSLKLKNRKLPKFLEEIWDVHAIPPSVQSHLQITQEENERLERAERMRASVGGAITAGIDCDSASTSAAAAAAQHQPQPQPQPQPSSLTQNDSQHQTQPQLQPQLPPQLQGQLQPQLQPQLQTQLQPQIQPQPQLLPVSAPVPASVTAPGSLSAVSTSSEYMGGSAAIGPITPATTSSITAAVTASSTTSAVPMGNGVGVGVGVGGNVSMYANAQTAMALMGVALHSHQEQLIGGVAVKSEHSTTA

Question: Which “Mean Fold Activation Through N-(2-ethyl-3-methoxybenzoyl)-N′-(3,5-dimethylbenzoyl)-N′-t-butylhydrazine” value (DmVgRXR + MmRXR) does the source give for `CCc1c(OC)cccc1C(=O)NN(C(=O)c1cc(C)cc(C)c1)C(C)(C)C` [N-(2-ethyl-3-methoxybenzoyl)-N′-(3,5-dimethylbenzoyl)-N′-t-butylhydrazine] here?
Answer: The value was 21 fold.

Question: And the “Mean Fold Activation Through N-(2-ethyl-3-methoxybenzoyl)-N′-(3,5-dimethylbenzoyl)-N′-t-butylhydrazine” value (VP16CfEcR)?
Answer: Its value is 2 fold.

Question: What about the “Sensitivity of the EcR/RXR switch to the ligand” value [1] of the same compound?
Answer: The value was “much more sensitive”.

Question: And the Fold induction (CfEcRDEF:MmRXRDEF; yeast cells, CfEcRDEF/MmRXRDEF, 0–25 μM, 4 hours after adding ligand)?
Answer: The Fold induction was “approximately 1800 fold”.

Question: What about the “Induction of gene expression (relative performance of ligands)” value (CfEcRDEF:MmRXRDEF; yeast strain comprising CfEcRDEF:MmRXRDEF, 0–100 μM ligand for four hours, FIGS. 18 and 19) of the same compound?
Answer: Its value is “induce gene expression better than any other ligand tested”.
